Measurements from PubChem BioAssay (NCI).
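Each compound was tested at five concentrations against cells in 96-well plates for 48 hours. The concentration for 50% growth inhibition is given as GI50. TGI: total growth inhibition.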

Experiments:
Assay in all cases: NCI-60 cell line screen, 48 h
SK-MEL-28 melanoma = system: SK-MEL-28 melanoma
MDA-MB-435 = system: MDA-MB-435
HL-60(TB) leukemia = system: HL-60(TB) leukemia
SF-295 CNS = system: SF-295 CNS
HOP-92 NSCLC = system: HOP-92 NSCLC
SK-OV-3 ovarian = system: SK-OV-3 ovarian
NCI-H226 lung = system: NCI-H226 lung
A549 NSCLC = system: A549 NSCLC
NCI-H460 lung = system: NCI-H460 lung
LOX IMVI melanoma = system: LOX IMVI melanoma
PC-3 prostate = system: PC-3 prostate
SN12C renal = system: SN12C renal
K-562 leukemia = system: K-562 leukemia
UACC-62 melanoma = system: UACC-62 melanoma
SW-620 colon = system: SW-620 colon
HCC-2998 colon = system: HCC-2998 colon
M14 melanoma = system: M14 melanoma
SK-MEL-2 melanoma = system: SK-MEL-2 melanoma
TK-10 renal = system: TK-10 renal
UACC-257 melanoma = system: UACC-257 melanoma
IGROV1 ovarian = system: IGROV1 ovarian
MALME-3M melanoma = system: MALME-3M melanoma
MDA-MB-468 breast = system: MDA-MB-468 breast
EKVX NSCLC = system: EKVX NSCLC
KM12 colon = system: KM12 colon
NCI-H23 lung = system: NCI-H23 lung
ACHN renal = system: ACHN renal
DU-145 prostate = system: DU-145 prostate
HS 578T breast = system: HS 578T breast
MOLT-4 leukemia = system: MOLT-4 leukemia
OVCAR-5 ovarian = system: OVCAR-5 ovarian
NCI-H522 lung = system: NCI-H522 lung
SF-539 CNS = system: SF-539 CNS
SF-268 CNS = system: SF-268 CNS
BT-549 breast = system: BT-549 breast
OVCAR-3 ovarian = system: OVCAR-3 ovarian
OVCAR-4 ovarian = system: OVCAR-4 ovarian
OVCAR-8 ovarian = system: OVCAR-8 ovarian
RXF 393 renal = system: RXF 393 renal
MCF7 breast = system: MCF7 breast
SNB-75 CNS = system: SNB-75 CNS
HT29 colon = system: HT29 colon
HOP-62 NSCLC = system: HOP-62 NSCLC
CAKI-1 renal = system: CAKI-1 renal
U251 CNS = system: U251 CNS
SK-MEL-5 melanoma = system: SK-MEL-5 melanoma
HCT-15 colon = system: HCT-15 colon
COLO 205 colon = system: COLO 205 colon
786-0 renal = system: 786-0 renal
A498 renal = system: A498 renal

`C=C1CC[C@@H]2[C@]3(C)COC(c4cn[nH]c4-c4cccc(Br)c4)O[C@@H]3CC[C@@]2(C)[C@@H]1C/C=C1/C(=O)OCC1O` (stereo not given in full) gave a GI50 (SK-MEL-28 melanoma) of 1.93 µM, a TGI (SK-MEL-28 melanoma) of 3.83 µM and a GI50 (MDA-MB-435) of 3.4 µM. It also gave a TGI (MDA-MB-435) of 14.1 µM, a GI50 (HL-60(TB) leukemia) of 1.87 µM and a TGI (HL-60(TB) leukemia) of 7.43 µM. For the same compound, the GI50 (SF-295 CNS) was 1.83 µM, the TGI (SF-295 CNS) was 3.99 µM and the GI50 (HOP-92 NSCLC) was 2.21 µM. For the same compound, the TGI (HOP-92 NSCLC) was 5.1 µM, the GI50 (SK-OV-3 ovarian) was 5.8 µM and the TGI (SK-OV-3 ovarian) was 21.4 µM. The GI50 (NCI-H226 lung) was 1.62 µM, the TGI (NCI-H226 lung) was 3.09 µM and the GI50 (A549 NSCLC) was 3.37 µM. It also gave a TGI (A549 NSCLC) of 14.1 µM, a GI50 (NCI-H460 lung) of 2.43 µM and a TGI (NCI-H460 lung) of 6.29 µM. The GI50 (LOX IMVI melanoma) was 1.39 µM, the TGI (LOX IMVI melanoma) was 2.7 µM and the GI50 (PC-3 prostate) was 3.07 µM. For the same compound, the TGI (PC-3 prostate) was 11.6 µM, the GI50 (SN12C renal) was 2.03 µM and the TGI (SN12C renal) was 4.78 µM. The GI50 (K-562 leukemia) was 1.93 µM, the TGI (K-562 leukemia) was 8.65 µM and the GI50 (UACC-62 melanoma) was 1.55 µM. For the same compound, the TGI (UACC-62 melanoma) was 3.15 µM, the GI50 (SW-620 colon) was 2.22 µM and the TGI (SW-620 colon) was 5.05 µM. The GI50 (HCC-2998 colon) was 1.87 µM, the TGI (HCC-2998 colon) was 3.53 µM and the GI50 (M14 melanoma) was 2.52 µM. It also gave a TGI (M14 melanoma) of 7.22 µM, a GI50 (SK-MEL-2 melanoma) of 2.55 µM and a TGI (SK-MEL-2 melanoma) of 5.59 µM. For the same compound, the GI50 (TK-10 renal) was 5.1 µM, the TGI (TK-10 renal) was 18.9 µM and the GI50 (UACC-257 melanoma) was 2.85 µM. For the same compound, the TGI (UACC-257 melanoma) was 9.7 µM, the GI50 (IGROV1 ovarian) was 2.72 µM and the TGI (IGROV1 ovarian) was 6.46 µM. It also gave a GI50 (MALME-3M melanoma) of 1.93 µM, a TGI (MALME-3M melanoma) of 4.25 µM and a GI50 (MDA-MB-468 breast) of 1.61 µM. For the same compound, the TGI (MDA-MB-468 breast) was 3.22 µM, the GI50 (EKVX NSCLC) was 2.15 µM and the TGI (EKVX NSCLC) was 4.81 µM. For the same compound, the GI50 (KM12 colon) was 2.44 µM, the TGI (KM12 colon) was 6.13 µM and the GI50 (NCI-H23 lung) was 1.84 µM. It also gave a TGI (NCI-H23 lung) of 3.62 µM, a GI50 (ACHN renal) of 1.95 µM and a TGI (ACHN renal) of 3.97 µM. For the same compound, the GI50 (DU-145 prostate) was 3.08 µM, the TGI (DU-145 prostate) was 9.43 µM and the GI50 (HS 578T breast) was 5.27 µM. For the same compound, the TGI (HS 578T breast) was 59.4 µM, the GI50 (MOLT-4 leukemia) was 2.29 µM and the TGI (MOLT-4 leukemia) was 18.7 µM. It also gave a GI50 (OVCAR-5 ovarian) of 2.14 µM, a TGI (OVCAR-5 ovarian) of 4.72 µM and a GI50 (NCI-H522 lung) of 1.9 µM. It also gave a TGI (NCI-H522 lung) of 3.77 µM, a GI50 (SF-539 CNS) of 1.74 µM and a TGI (SF-539 CNS) of 3.22 µM. It also gave a GI50 (SF-268 CNS) of 12.6 µM, a TGI (SF-268 CNS) of 40.3 µM and a GI50 (BT-549 breast) of 1.44 µM. The TGI (BT-549 breast) was 3 µM, the GI50 (OVCAR-3 ovarian) was 2.02 µM and the TGI (OVCAR-3 ovarian) was 3.99 µM. It also gave a GI50 (OVCAR-4 ovarian) of 4.47 µM, a TGI (OVCAR-4 ovarian) of 30.1 µM and a GI50 (OVCAR-8 ovarian) of 1.88 µM. For the same compound, the TGI (OVCAR-8 ovarian) was 6.17 µM, the GI50 (RXF 393 renal) was 1.81 µM and the TGI (RXF 393 renal) was 3.26 µM. For the same compound, the GI50 (MCF7 breast) was 1.28 µM, the TGI (MCF7 breast) was 3.95 µM and the GI50 (SNB-75 CNS) was 2.45 µM. It also gave a TGI (SNB-75 CNS) of 7.86 µM, a GI50 (HT29 colon) of 2.1 µM and a TGI (HT29 colon) of 4.82 µM. For the same compound, the GI50 (HOP-62 NSCLC) was 3.78 µM, the TGI (HOP-62 NSCLC) was 13.7 µM and the GI50 (CAKI-1 renal) was 2.77 µM. For the same compound, the TGI (CAKI-1 renal) was 7.05 µM, the GI50 (U251 CNS) was 1.81 µM and the TGI (U251 CNS) was 3.36 µM. For the same compound, the GI50 (SK-MEL-5 melanoma) was 1.75 µM, the TGI (SK-MEL-5 melanoma) was 3.19 µM and the GI50 (HCT-15 colon) was 1.66 µM. The TGI (HCT-15 colon) was 3.78 µM, the GI50 (COLO 205 colon) was 2.18 µM and the TGI (COLO 205 colon) was 4.48 µM. It also gave a GI50 (786-0 renal) of 1.92 µM, a TGI (786-0 renal) of 3.6 µM and a GI50 (A498 renal) of 20.8 µM. It also gave a TGI (A498 renal) of 35.4 µM.
